Laboratory results from ChEMBL document CHEMBL1147297, “4-Hydroxy-25-desoxyneorollinicin, a new bistetrahydrofuranoid acetogenin from Rollinia papilionella” (1989).

Assays:
Type in all cases: functional
[1] = tested on: MCF7; test: Cytotoxicity against human MCF7 cells; conditions: read-out: ED50 (the source's name)
[2] = tested on: A549; test: Cytotoxicity against human A549 cells; conditions: read-out: ED50 (the source's name)
[3] = tested on: P388; test: Cytotoxicity against mouse P388 cells

Structure (SMILES)	EC50 [1]	EC50 [2]	ED50 [3]
CCCCCCCCCC[C@@H](O)[C@@H]1CC[C@H]([C@H]2CC[C@@H]([C@@H](O)CCCCCCCCCCC(O)CC3=CC(C)OC3=O)O2)O1 (stereo partly drawn)	< 1 ng/mL	< 1 ng/mL	
CCCCCCCCC[C@@H](O)[C@@H](O)[C@@H]1CC[C@@H]([C@@H]2CC[C@@H]([C@@H](O)CCCCCCCCCCCCC3=CC(C)OC3=O)O2)O1 (stereo partly drawn) [ROLLINICIN]			2.9 ×10⁻⁸ ug/ml
